# Results from patent US7985424B2, “Dendritic polymers with enhanced amplification and interior functionality” (Dendritic Nanotechnologies Inc., priority 2004, dated 2011).
# Legend:
# [1] = Proton relaxivity analysis (variable field T1-T2 analyzer); assay type: physicochemical; settings: Table IV; field strength varied from 1-64 MHz
# Protocol: Relaxivity analysis was performed using a variable field T1-T2 analyzer. The field strength was varied from 1-64 MHz.
# The Gd(III) content of the solutions was determined on a sequential, radially viewed Varian™ Liberty Series II ICPOES inductively coupled plasma optical emission spectrophotometer (Anderson Analytical, TX). Relaxivity analysis was performed using a variable field T1-T2 analyzer (University of Pittsburgh). The field strength was varied from 1-64 MHz. […] Relaxivity values for DTPA-Gd(III)-encapsulated dendrimers were similar to free DTPA-Gd(III).
# [2] = system: HEK 293 cells; test: Membrane permeation of FITC-conjugated PEHAM dendrimer (fluorescence microscopy); assay type: cell-based, human; settings: monitored at 2, 5 and 24 hours, FIG. 13
# Protocol: Fluorescence microscopy and phase contrast microscopy studies were performed using a Nikon Diaphot™ TMD microscope equipped with Nikon™ TMD-EF for fluorescence, along with a Nikon™ CoolPix 990 digital camera to capture the results.
# HEK 293 cells were plated at 40% confluency in a 96-well plate (Becton Dickinson) in MEM (Fisher), containing 10% FBS (ISC BioExpress). […] Control wells included G=1 PEHAM dendrimer and FITC dye alone, at equivalent concentrations. The cells were incubated with the conjugate for 24 hours, with monitoring via fluorescence microscopy at 2, 5, and 24 hours. Prior to examination under the microscope, the cells to be analyzed were rinsed 2 times with PBS.
Relaxivity (r1) [1] [mM⁻¹ s⁻¹],Compound,membrane permeation / intracellular fluorescence [2]
4.2,"O=C([O-])CN(CCN(CC(=O)[O-])CC(=O)O)CCN(CC(=O)[O-])CC(=O)O.[Gd+3] [DTPA-Gd, diethylenetriaminepentaacetic acid, gadolinium(III)]",–
–,fluorescein isothiocyanate [FITC],no intracellular fluorescence
